Assay results reported in ChEMBL document CHEMBL5042481, “Structure-Based Optimization of ML300-Derived, Noncovalent Inhibitors Targeting the Severe Acute Respiratory Syndrome Coronavirus 3CL Protease (SARS-CoV-2 3CLpro)” (J Med Chem, 2022).
Calls of active or inactive are those of the source. The calls are words filed in the database; no cut-off is given here.

Assays:
SARS-CoV-2 [1] = experiment: Antiviral activity against SARS Cov-2 USA_WA1/2020 infected in Vero E6 cells expressing ACE2 reporter assessed as reduction in plaque formation at 0.21 to 50 uM and measured at 3 days post-infection by crystal violet staining based assay; format: functional, organism-based; settings: Severe acute respiratory syndrome coronavirus 2, USA_WA1/2020, Vero C1008, 72 h
SARS-CoV-2 [2] = experiment: Antiviral activity against SARS Cov-2 USA_WA1/2020 infected in Vero E6 cells expressing ACE2 reporter assessed as inhibition of viral cytopathic effect measured after 68 hrs post infection by neutral red uptake assay; format: functional, organism-based; settings: Severe acute respiratory syndrome coronavirus 2, USA_WA1/2020, Vero C1008, 68 h
[3] = tested on: Severe acute respiratory syndrome-related coronavirus; settings: 1, dose microM <=100, time 30.0 min
[4] = tested on: Severe acute respiratory syndrome coronavirus 2; settings: dose microM <=100, time 30.0 min
CYP2D6 = CYP2D6 (Homo sapiens, UniProt P10635); experiment: Inhibition of CYP2D6 (unknown origin) at 10 uM relative to control; format: ADME
CYP2D6, sequence (P10635 whole entry): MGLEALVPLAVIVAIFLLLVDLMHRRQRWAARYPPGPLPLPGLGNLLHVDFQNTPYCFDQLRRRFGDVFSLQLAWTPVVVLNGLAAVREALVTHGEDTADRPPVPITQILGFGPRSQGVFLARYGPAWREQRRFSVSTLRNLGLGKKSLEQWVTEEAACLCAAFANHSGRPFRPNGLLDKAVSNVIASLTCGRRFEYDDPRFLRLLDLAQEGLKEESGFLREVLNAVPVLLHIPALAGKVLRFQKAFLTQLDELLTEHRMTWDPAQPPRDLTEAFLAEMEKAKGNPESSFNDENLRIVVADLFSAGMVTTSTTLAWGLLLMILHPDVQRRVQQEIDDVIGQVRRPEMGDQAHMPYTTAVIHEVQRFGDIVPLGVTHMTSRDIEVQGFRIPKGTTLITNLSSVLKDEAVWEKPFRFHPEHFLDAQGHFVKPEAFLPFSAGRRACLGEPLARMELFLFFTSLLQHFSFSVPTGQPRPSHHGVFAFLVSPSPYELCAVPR

[5] = Protein binding in rat plasma assessed as unbound fraction; format: ADME, cell-free
CYP3A4 = CYP3A4 (Homo sapiens, UniProt P08684); experiment: Inhibition of CYP3A4 (unknown origin) at 10 uM relative to control; format: ADME
CYP3A4, sequence (P08684 whole entry): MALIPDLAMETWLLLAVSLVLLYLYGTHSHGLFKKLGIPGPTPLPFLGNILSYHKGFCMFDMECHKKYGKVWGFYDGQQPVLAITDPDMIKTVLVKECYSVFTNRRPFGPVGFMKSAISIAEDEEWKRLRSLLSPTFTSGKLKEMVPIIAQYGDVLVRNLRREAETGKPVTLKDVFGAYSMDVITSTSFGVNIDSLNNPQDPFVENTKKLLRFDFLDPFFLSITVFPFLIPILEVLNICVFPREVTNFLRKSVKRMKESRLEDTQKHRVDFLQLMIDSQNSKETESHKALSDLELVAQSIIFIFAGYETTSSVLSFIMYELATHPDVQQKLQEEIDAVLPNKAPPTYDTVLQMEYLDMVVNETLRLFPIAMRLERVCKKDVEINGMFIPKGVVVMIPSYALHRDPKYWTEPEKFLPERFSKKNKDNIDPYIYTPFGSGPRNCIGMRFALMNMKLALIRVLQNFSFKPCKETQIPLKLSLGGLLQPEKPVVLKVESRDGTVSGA

CYP2C9 = CYP2C9 (Homo sapiens, UniProt P11712); experiment: Inhibition of CYP2C9 (unknown origin) at 10 uM relative to control; format: ADME
CYP2C9, sequence (P11712 whole entry): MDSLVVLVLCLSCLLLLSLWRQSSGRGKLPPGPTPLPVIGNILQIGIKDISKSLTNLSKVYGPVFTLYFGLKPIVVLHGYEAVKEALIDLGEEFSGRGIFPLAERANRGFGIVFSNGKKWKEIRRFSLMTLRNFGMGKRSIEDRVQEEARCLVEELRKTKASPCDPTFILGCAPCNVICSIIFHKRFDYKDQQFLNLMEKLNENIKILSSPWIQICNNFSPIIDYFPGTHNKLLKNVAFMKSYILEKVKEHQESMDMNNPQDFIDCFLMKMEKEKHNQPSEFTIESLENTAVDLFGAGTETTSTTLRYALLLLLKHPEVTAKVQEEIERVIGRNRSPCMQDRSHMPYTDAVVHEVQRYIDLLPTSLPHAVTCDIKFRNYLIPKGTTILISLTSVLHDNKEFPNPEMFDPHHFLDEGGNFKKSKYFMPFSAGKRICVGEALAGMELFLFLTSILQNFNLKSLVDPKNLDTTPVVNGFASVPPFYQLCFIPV

[6] = Protein binding in human plasma assessed as unbound fraction; format: ADME, cell-free
SARS-CoV-2 [7] = experiment: Cytotoxicity against SARS CoV-2 infected Vero E6 cells assessed as reduction in cell viability; format: toxicity; settings: chlorocebus sabaeus, vero c1008
[8] = Intrinsic clearance in human liver microsomes; format: ADME, Microsome; settings: read-out: CLH
[9] = Apparent passive permeability in MDCK-MDR1 cells; format: ADME, cell-based, Canis lupus familiaris; settings: dog
[10] = Intrinsic clearance in rat liver microsomes; format: ADME, Microsome; settings: read-out: CLH
[11] = Intrinsic clearance in human liver S9 fraction at 25 uM incubated for 1 hr in presence of NADPH by LC-MS/MS analysis; format: ADME, subcellular; settings: read-out: CLH

CCC(CC)COC(=O)[C@H](C)NP(=O)(OC[C@H]1O[C@@](C#N)(c2ccc3c(N)ncnn23)[C@H](O)[C@@H]1O)Oc1ccccc1 (single isomer, unassigned)
EC50 (SARS-CoV-2 [1]): 0.43 µM
EC50 (SARS-CoV-2 [2]): 0.34 µM

COc1cc(-c2cn[nH]c2)ccc1N(Cc1cccc(Cl)c1)C(=O)Cn1nnc2ccccc21
EC50 (SARS-CoV-2 [1]): 2.01 µM
EC50 (SARS-CoV-2 [2]): 2.3 µM

O=C(Cn1nnc2ccccc21)N(Cc1cccc(Cl)c1)c1ccc(-c2ccc[nH]c2=O)cc1
EC50 (SARS-CoV-2 [1]): 16.7 µM
EC50 (SARS-CoV-2 [2]): 8.77 µM

O=C(Cn1nnc2ccccc21)N(Cc1ccsc1)c1ccc(-c2cccnc2)cc1
inhibition [3]: Active
inhibition [4]: Active
EC50 (SARS-CoV-2 [1]): 14.6 µM
EC50 (SARS-CoV-2 [2]): 12.1 µM

O=C(Cn1nnc2ccccc21)N(Cc1cccc(Cl)c1)c1ccc(-c2c[nH]cn2)cc1
inhibition at 10 µM (CYP2D6): 87%
fraction unbound [5]: 0.018
inhibition at 10 µM (CYP3A4): 100%
inhibition at 10 µM (CYP2C9): 100%
fraction unbound [6]: 0.007
CC50 (SARS-CoV-2 [7]): > 50 µM
CLint scaled [8]: 141 mL/min/kg
Papp [9]: 46.1 ×10⁻⁶ cm/s
CLint scaled [10]: 589 mL/min/kg

O=C(Cn1nnc2ccccc21)N(Cc1cccc(Cl)c1)c1ccc(-c2cn[nH]c2)cn1
EC50 (SARS-CoV-2 [1]): 3.39 µM
EC50 (SARS-CoV-2 [2]): 1.91 µM

O=C(Cc1cccnc1)N(Cc1cccc(Cl)c1)c1ccc(-c2cn[nH]c2)cc1
CLint scaled at 25 µM [11]: 256 mL/min/kg
inhibition at 10 µM (CYP2D6): 55%
fraction unbound [5]: 0.035
inhibition at 10 µM (CYP3A4): 99%
inhibition at 10 µM (CYP2C9): 99%
fraction unbound [6]: 0.004
CLint scaled [8]: 981 mL/min/kg
Papp [9]: 61.8 ×10⁻⁶ cm/s
CLint scaled [10]: 3560 mL/min/kg

O=C(Nc1ccc(N(Cc2ccsc2)C(=O)Cn2nnc3ccccc32)cc1)C1CC1
EC50 (SARS-CoV-2 [1]): 28.2 µM
EC50 (SARS-CoV-2 [2]): 19.9 µM

O=C(Cc1cncnc1)N(Cc1cccc(Cl)c1)c1ccc(-c2cn[nH]c2)cc1
CLint scaled at 25 µM [11]: 145 mL/min/kg
inhibition at 10 µM (CYP2D6): 26%
fraction unbound [5]: 0.11
inhibition at 10 µM (CYP3A4): 88%
inhibition at 10 µM (CYP2C9): 92%
fraction unbound [6]: 0.018
CLint scaled [8]: 620 mL/min/kg
Papp [9]: 66.7 ×10⁻⁶ cm/s
CLint scaled [10]: 3300 mL/min/kg

COc1cc(N(Cc2cccc(Cl)c2)C(=O)Cn2nnc3ccccc32)ccc1-c1cn[nH]c1
EC50 (SARS-CoV-2 [1]): 3.24 µM
EC50 (SARS-CoV-2 [2]): 2.93 µM

O=C(Cn1nnc2ccccc21)N(Cc1ccsc1)c1ccc(-c2c[nH]cn2)cc1
EC50 (SARS-CoV-2 [1]): 1.75 µM
fraction unbound [6]: 0.01
EC50 (SARS-CoV-2 [2]): 1.74 µM

O=C(Cn1nnc2ccccc21)N(Cc1cccc(Cl)c1)c1ccc(-c2cccnc2)cc1
EC50 (SARS-CoV-2 [1]): 11.1 µM
EC50 (SARS-CoV-2 [2]): 7.61 µM

O=C(Cn1nnc2ccccc21)N(Cc1cccc(Cl)c1)c1ccc(-c2cn[nH]c2)nc1
EC50 (SARS-CoV-2 [1]): 4.65 µM
EC50 (SARS-CoV-2 [2]): 3.81 µM

O=C(Cn1nnc2ccccc21)N(Cc1cccc(Cl)c1)c1ccc(-c2cn[nH]c2)cc1
CLint scaled at 25 µM [11]: 436 mL/min/kg
EC50 (SARS-CoV-2 [1]): 3.31 µM
inhibition at 10 µM (CYP2D6): 63%
inhibition at 10 µM (CYP3A4): 96%
inhibition at 10 µM (CYP2C9): 99%
fraction unbound [6]: 0.001
EC50 (SARS-CoV-2 [2]): 1.98 µM
CLint scaled [8]: 2620 mL/min/kg
Papp [9]: 39.4 ×10⁻⁶ cm/s
CLint scaled [10]: 5670 mL/min/kg

O=C(Cn1nnc2ccccc21)N(Cc1ccsc1)c1ccc(-c2ccccc2)cc1
inhibition [3]: inactive
inhibition [4]: inactive
